From US7667052B2 (Eisai R&D Management Co., Ltd., priority 2003, dated 2010) come the findings set out here.

pIC50: −log10 of the molar value. Like-named read-outs stand apart in the source and are kept apart here.

Broadly, the pIC50 is −log10 of the IC50, conventionally taken in molar units. In general, IC50 refers to the concentration at which inhibition is half-maximal.

In this assay the test system is transcription from VEGF promoter. Briefly: VEGF transcription-suppressing activity, VEGF-PLAP reporter in U251/1-8 cell. To be noted: Homo sapiens, U-251, U251/1-8 cell, PLAP activity, low oxygen 18 hours. Format: cell-based. In a few lines: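 U251 glioma clone stably carrying a ~2.3 kb human VEGF promoter–secreted PLAP reporter, 4×10^4 cells/well, exposed to 3-fold dilutions of compound for 18 h under low oxygen. Supernatant PLAP read by chemiluminescence at pH 10.0; IC50 = 50% suppression, normoxia 0%, hypoxia 100%.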

On to `CCC(O)C(C)C1OC1CC(C)/C=C/C=C(\C)C1OC(=O)CC(O)CCC(C)(O)C(OC(C)=O)/C=C/C1C` (centres unmarked) [11107B], for which the pIC50 (read-out: IC50 values of VEGF transcription-suppressing activity (range given)) is 7.00 to 9.00. The IC50 (read-out: VEGF transcription suppressing activity (IC50: nM)) turned out to be 1.8 nM.
